Assay results reported in ChEMBL document CHEMBL1132050, “Synthesis of novel analogues of the delta opioid ligand SNC-80 using AlCl3-promoted aminolysis” (Bioorg Med Chem Lett, 1999).

Key:
[1] = tested on: Cricetinae gen. sp.; experiment: Maximum efficacy in the Hamster vas deferens (HVD) functional assay was determined […] at a compound concentration of 10E-10 to 10E-5
[2] = tested on: Mus musculus; experiment: Antinociceptive activity against acetic acid induced abdominal constriction model in mice by sc administration; type: functional; details: Abdomen
[3] = tested on: Mus musculus; experiment: Maximum efficacy in Mouse vas deferens (MVD) functional assay was determined […] at a compound concentration of 10E-10 to 10E-5
[4] = tested on: Mus musculus; experiment: Potency in the Mouse vas deferens (MVD) functional assay was determined […]
[5] = target: T1, Delta-type opioid receptor (Homo sapiens, UniProt P41143); experiment: Inhibition of binding of [3H]- -naltrindole (0.15 nM) to membranes from CHO cells expressing Opioid receptor delta 1; type: cell membranes
T1 sequence (P41143 whole entry): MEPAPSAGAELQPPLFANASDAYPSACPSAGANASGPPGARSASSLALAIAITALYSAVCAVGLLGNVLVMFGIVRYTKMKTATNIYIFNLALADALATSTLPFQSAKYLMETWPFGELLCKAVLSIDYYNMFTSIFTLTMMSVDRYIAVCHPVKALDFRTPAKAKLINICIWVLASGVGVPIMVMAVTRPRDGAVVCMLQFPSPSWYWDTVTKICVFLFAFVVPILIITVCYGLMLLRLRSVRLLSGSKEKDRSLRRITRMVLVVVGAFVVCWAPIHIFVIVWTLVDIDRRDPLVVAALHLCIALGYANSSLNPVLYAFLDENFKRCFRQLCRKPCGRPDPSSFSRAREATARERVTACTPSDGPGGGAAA

[6] = target: Kappa-type opioid receptor (Cavia porcellus, UniProt P41144); experiment: Binding affinity towards Opioid receptor kappa 1 using [3H]- U-69,593 (1.5 nM) as radioligand in guinea pig brain membranes; type: cell membranes, Membrane
Chain of Kappa-type opioid receptor (P41144 whole entry): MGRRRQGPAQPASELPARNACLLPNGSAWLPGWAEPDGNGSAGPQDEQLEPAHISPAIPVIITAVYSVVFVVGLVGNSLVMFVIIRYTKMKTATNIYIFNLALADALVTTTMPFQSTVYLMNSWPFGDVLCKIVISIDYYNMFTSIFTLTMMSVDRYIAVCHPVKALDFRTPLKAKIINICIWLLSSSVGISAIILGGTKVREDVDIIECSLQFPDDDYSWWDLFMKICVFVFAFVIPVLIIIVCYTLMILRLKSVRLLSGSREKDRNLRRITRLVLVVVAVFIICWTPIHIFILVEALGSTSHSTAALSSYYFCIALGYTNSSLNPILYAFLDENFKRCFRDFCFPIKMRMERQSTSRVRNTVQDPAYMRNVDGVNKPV

[7] = target: Mu-type opioid receptor (Rattus norvegicus, UniProt P33535); experiment: Binding affinity towards mu opioid receptor using [3H]- -DAMGO (1.5 nM) as radioligand in rat brain membranes; type: cell membranes
Chain of Mu-type opioid receptor (P33535 whole entry): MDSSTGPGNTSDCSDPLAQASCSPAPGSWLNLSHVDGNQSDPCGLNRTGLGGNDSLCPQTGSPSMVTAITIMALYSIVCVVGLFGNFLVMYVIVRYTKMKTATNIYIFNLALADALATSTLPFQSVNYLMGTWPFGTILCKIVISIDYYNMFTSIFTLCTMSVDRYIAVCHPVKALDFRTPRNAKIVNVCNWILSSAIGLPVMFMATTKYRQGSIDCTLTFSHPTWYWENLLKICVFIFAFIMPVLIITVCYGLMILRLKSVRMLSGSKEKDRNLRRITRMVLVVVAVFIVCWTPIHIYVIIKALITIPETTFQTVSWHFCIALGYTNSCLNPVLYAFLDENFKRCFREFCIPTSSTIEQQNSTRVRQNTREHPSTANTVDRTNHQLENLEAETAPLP

[8] = tested on: Cricetinae gen. sp.; experiment: Potency in the Hamster vas deferens (HVD) functional assay was determined […]
[9] = target: T1, Delta-type opioid receptor; experiment: Compound was tested for inhibition of binding of [3H]- -naltrindole (0.15 nM) to membranes from CHO cells expressing human delta opioid receptor; type: cell membranes

SMILES: CCN(CC)C(=O)c1ccc(C(c2ccccc2)N2CCN(Cc3ccc4c(c3)OCO4)CC2)cc1 (centres undefined)
- Efficacy [1]: 52%
- ED50 [2]: > 200 µmol/kg
- Efficacy [3]: 98%
- IC50 [4]: 0.1 µM
- IC50 [5]: 0.0014 µM
- IC50 [6]: 3.9 µM
- IC50 [7]: > 10 µM
- IC50 [8]: 2.51 µM

SMILES: CCN(CC)C(=O)c1ccc(C(c2ccccc2)N2CCN(CC3CCc4ccccc4C3)CC2)cc1 (centres undefined)
- IC50 [5]: 0.0018 µM
- IC50 [7]: 6.24 µM

SMILES: CCN(CC)C(=O)c1ccc(C(c2ccccc2)N2CC(C)NC(C)C2)cc1 (centres undefined)
- IC50 [5]: 0.042 µM

SMILES: CCN(CC)C(=O)c1ccc(C(c2ccccc2)N2CCNC3CCCCC32)cc1 (centres undefined)
- IC50 [5]: 0.029 µM

SMILES: CCN(CC)C(=O)c1ccc(C(c2ccccc2)N2CCN(CCO)CC2)cc1 (centres undefined)
- IC50 [5]: 0.0055 µM
- IC50 [7]: > 10 µM

SMILES: CCCN1CCN(C(c2ccccc2)c2ccc(C(=O)N(CC)CC)cc2)CC1 (centres undefined)
- IC50 [5]: 0.0114 µM
- IC50 [7]: > 10 µM

SMILES: C=CCN1CCCN(C(c2ccccc2)c2ccc(C(=O)N(CC)CC)cc2)CC1 (centres undefined)
- IC50 [9]: 0.013 µM

SMILES: CCN(CC)C(=O)c1ccc(C(NCC(C)(C)N)c2ccccc2)cc1 (centres undefined)
- IC50 [5]: 0.12 µM

SMILES: CCN(CC)C(=O)c1ccc(C(c2ccccc2)N2CCN(C3CCCC3)CC2)cc1 (centres undefined)
- IC50 [5]: 0.0058 µM

SMILES: CCN(CC)C(=O)c1ccc(C(c2ccccc2)N(CC)CCN(C)C)cc1 (centres undefined)
- IC50 [5]: 0.845 µM

SMILES: CCN(CC)C(=O)c1ccc(C(c2ccccc2)N(CCN(C)C)Cc2ccccc2)cc1 (centres undefined)
- Efficacy [1]: 13%
- ED50 [2]: 48.4 µmol/kg
- Efficacy [3]: 7%
- IC50 [4]: > 10 µM
- IC50 [5]: 0.07 µM
- IC50 [6]: 0.483 µM
- IC50 [7]: > 10 µM
- IC50 [8]: > 10 µM

SMILES: CCN(CC)C(=O)c1ccc([C@H](c2ccccc2)N2C[C@@H](C)N(Cc3ccc4c(c3)OCO4)C[C@@H]2C)cc1
- Efficacy [1]: 68%
- ED50 [2]: > 200 µmol/kg
- Efficacy [3]: 100%
- IC50 [4]: 0.0398 µM
- IC50 [5]: 0.00054 µM
- IC50 [7]: 0.702 µM
- IC50 [8]: 1.26 µM

SMILES: CCN(CC)C(=O)c1ccc(C(c2ccccc2)N2CCN(c3ccc(O)cc3)CC2)cc1 (centres undefined)
- IC50 [5]: 0.01 µM
- IC50 [7]: > 10 µM

SMILES: C=CCN1CCN(C(c2ccccc2)c2ccc(C(=O)N(CC)CC)cc2)CC1 (stereo in doubt; 2)
- Efficacy [1]: 4%
- ED50 [2]: 145 µmol/kg
- Efficacy [3]: 87%
- IC50 [4]: 0.631 µM
- IC50 [5]: 0.0041 µM
- IC50 [6]: 1.99 µM
- IC50 [7]: > 10 µM
- IC50 [8]: > 10 µM

SMILES: C=CCN1CCN(C(c2ccccc2)c2ccc(C(=O)N(CC)CC)cc2)CC1 (stereo in doubt; 6 {1} (2))
- IC50 [5]: 0.008 µM

SMILES: C=CCN1CCN(C(c2ccccc2)c2ccc(C(=O)N(CC)CC)cc2)CC1 (stereo in doubt; 7 {1} (2))
- IC50 [5]: 0.008 µM
- IC50 [7]: > 50 µM

SMILES: C=CCN1C[C@H](C)N([C@H](c2ccc(C(=O)N(CC)CC)cc2)c2cccc(OC)c2)C[C@H]1C [SNC-80]
- Efficacy [1]: 90%
- ED50 [2]: 30.4 µmol/kg
- Efficacy [3]: 100%
- IC50 [4]: 0.00794 µM
- IC50 [6]: 4.1 µM
- IC50 [8]: 0.0501 µM
